# Test results from patent US6538106B1, “Compositions and methods for treating infections using analogues of indolicidin” (priority 1996, dated 2003).
# Counter-ions that a name gives are not always drawn. Peptide text beside a SMILES is read from it.
# What was measured:
# [1] = Acute single dose toxicity in isotonic saline (ip, iv, sc); assay type: in vivo, Swiss CD1 mice; conditions: 5 days
# Description: The acute, single dose toxicity of various indolicidin analogues is tested in Swiss CD1 mice using various routes of administration. In order to determine the inherent toxicities of the peptide analogues in the absence of any formulation/delivery vehicle effects, the peptides are all administered in isotonic saline with the final pH between 6 and 7.
# After administration, the mice are observed for a period of 5 days.
# P. aeruginosa = assay: MIC of APS-modified and parent peptides; assay type: cell-based; conditions: P. aeruginosa PA004
# E. coli = assay: MIC of APS-modified and parent peptides; assay type: cell-based; conditions: E. coli ECO005
# [2] = test system: MSSA (Smith, ATCC # 19640); assay: MSSA infection, mouse survival; assay type: in vivo, mice; conditions: formulation D
# E. faecalis = assay: MIC of APS-modified and parent peptides; assay type: cell-based
# Description: (§1) All biological assays that compare APS-modified peptides with unmodified peptides are performed on an equimolar ratio. The concentration of APS-modified peptides can be determined by spectrophotometric measurement, which is used to normalize concentrations for biological assays.
# (§2) APS-modified peptides are at least as potent as the parent peptides in in vitro assays performed as described herein. MIC values against gram positive bacteria are presented for several APS-modified peptides and compared with the values obtained using the parent peptides (Table 22).
# S. aureus = assay: MIC of APS-modified and parent peptides; assay type: cell-based
# Description: as §1, §2
# S. marcescens = assay: MIC of APS-modified and parent peptides; assay type: cell-based; conditions: S. marcescens SMS003
# K. pneumoniae = assay: MIC of APS-modified and parent peptides; assay type: cell-based; conditions: K. pneumoniae KP001
# Liposome dye release = assay type: biochemical
# Description: In this example, a dye pair consisting of the fluorescent molecule 8-aminonapthalene-1,3,6-trisulfonic acid (ANTS) and its quencher molecule p-xylene-bis-pyridinium bromide (DPX) are used. The mixture of free dye molecules, dye free liposomes, and liposomes containing encapsulated ANTS-DPX are separated by size exclusion chromatography. In the assay, the test peptide is incubated with the ANTS-DPX containing liposomes and the fluorescence due to ANTS release to the outside of the liposome is measured over time.
# Using this assay, peptide activity, measured by dye release, is shown to be extremely sensitive to the composition of the liposomes at many liposome to peptide ratios (L/P) (FIG. 7). […] This […] selectivity may mimic that observed […] for bacterial cells in the presence of mammalian cells.
# ANTS/DPX can be replaced with fluorescein isothiocyanate-labeled dextran (FD-4), molecular weight 4,400, in the egg PC liposomes.
# S. maltophilia = assay: MIC of APS-modified and parent peptides; assay type: cell-based; conditions: S. maltophilia SMA002
# MRSA (ATCC # 33591) = assay: MRSA infection, mouse survival; assay type: in vivo, mice; conditions: for Percentage of Animals Surviving, Treatment: iv, formulation D
# E. cloacae = assay: MIC of APS-modified and parent peptides; assay type: cell-based; conditions: E. cloacae ECL007
# [3] = test system: S. epidermidis (ATCC # 12228); assay: S. epidermidis infection, mouse survival; assay type: in vivo, mice
# E.coli strain ML-35 = assay type: cell-based; conditions: valinomycin pre-incubation
# A. calcoaceticus = assay: MIC of APS-modified and parent peptides; assay type: cell-based; conditions: A. calcoaceticus AC002
compound,measurement,setting,value
"CC[C@H](C)[C@H](N)C(=O)N[C@@H](CC(C)C)C(=O)N[C@@H](CCCCN)C(=O)N[C@@H](CCCCN)C(=O)N[C@@H](Cc1c[nH]c2ccccc12)C(=O)N1CCC[C@H]1C(=O)N[C@@H](Cc1c[nH]c2ccccc12)C(=O)N[C@@H](Cc1c[nH]c2ccccc12)C(=O)N1CCC[C@H]1C(=O)N[C@@H](Cc1c[nH]c2ccccc12)C(=O)N[C@@H](CCCNC(=N)N)C(=O)N[C@@H](CCCNC(=N)N)C(=O)N[C@@H](CCCCN)C(N)=O [MBI 11CN HCl, I L K K W P W W P W R R K] (H-ILKKWPWWPWRRK-NH2; N-terminus assumed)",LD90-100,[1],8.0 mg/kg
I L K K W P W W P W R R K [MBI 11CN],Corrected MIC,P. aeruginosa,>128 µg/mL
same,Corrected MIC,E. coli,16 µg/mL
same,mice rescued from MSSA infection,"[2]; 35.7 mg/kg ip, 60 minutes post-infection",100%
same,activity at lower dose levels,[2]; dose levels lower than 35.7 mg/kg ip,little or no activity
same,Corrected MIC,E. faecalis; E. faecalis EFS001,32 µg/mL
same,Corrected MIC,E. faecalis; E. faecalis EFS004,8 µg/mL
same,Corrected MIC,E. faecalis; E. faecalis EFS008,64 µg/mL
same,Corrected MIC,S. aureus; S. aureus SA010,2 µg/mL
same,Corrected MIC,S. aureus; S. aureus SA011,8 µg/mL
same,Corrected MIC,S. aureus; S. aureus SA014,16 µg/mL
same,Corrected MIC,S. aureus; S. aureus SA018,64 µg/mL
same,Corrected MIC,S. aureus; S. aureus SA025,4 µg/mL
same,Corrected MIC,S. aureus; S. aureus SA093,2 µg/mL
same,Corrected MIC,S. marcescens,>128 µg/mL
same,Corrected MIC,K. pneumoniae,128 µg/mL
same,"Release of FD-4 (fluorescein isothiocyanate-labeled dextran, MW 4,400)",Liposome dye release; egg PC liposomes,No increase in FD-4 fluorescence is detected
same,Membrane permeabilizing activity (ANTS/DPX dye release),"Liposome dye release; egg PC liposomes with cholesterol added, even at very high lipid to peptide molar ratios",virtually abolishes membrane permeabilizing activity
same,Corrected MIC,S. maltophilia,128 µg/mL
same,survival of mice,"MRSA (ATCC # 33591); 1 mg/kg (20 min) protocol: five […] iv injections at −10, −5, 0, +5, +10 mins",delayed the death of the mice to a significant extent
same,survival of mice,MRSA (ATCC # 33591); 1 mg/kg (2 hr) protocol: five […] iv injections 1 hour apart,no improvement in survivability over the negative control
same,survival of mice,"MRSA (ATCC # 33591); 5 mg/kg protocol: three 5.5 mg/kg iv injections at −5, +55, +115 mins",no improvement in survivability over the negative control
same,"Percentage of Animals Surviving, Treatment",MRSA (ATCC # 33591); 6 hours post-infection,70%
same,"Percentage of Animals Surviving, Treatment",MRSA (ATCC # 33591); 10 hours post-infection,30%
same,Corrected MIC,E. cloacae,>128 µg/mL
same,survival of mice,"[3]; iv, formulation D, treatment 15 minutes post-infection",Efficacy is observed at all three dose levels
same,survival of mice,"[3]; iv, formulation D, treatment 30 minutes post-infection",less activity
same,survival of mice,"[3]; iv, formulation D, treatment 60 minutes post-infection",no significant effect
same,survival of mice,[3]; single iv injection of […] 15 minutes post-infection,best survival rate
same,"ONPG hydrolysis diminished, cells pre-incubated with valinomycin vs no pre-incubation",E.coli strain ML-35,approximately 50%
same,Corrected MIC,A. calcoaceticus,4 µg/mL
